Source: patent publication US10065941B2, “Aminotriazine derivative and pharmaceutical composition comprising the same” (Shionogi & Co., Ltd., priority 2013, dated 2018)

Tests used:
human P2X3 receptor = human P2X3 receptor (Homo sapiens (Human), UniProt P56373); experiment: Evaluation of human P2X3 receptor inhibitory activity (Test Example 1); format: cell-based; details: C6BU-1 cell transfected with human P2X3 receptor gene, FLIPR 384
Summary of the method: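 FLIPR calcium read-out: signal taken as peak fluorescence after ATP addition divided by starting fluorescence, and IC50 calculated from it. Compound added 5 min before 150 nM ATP solution (pre-dispense stock) to Fluo-3-AM-loaded C6BU-1 cells stably transfected with human P2X3; HEPES buffer pH 7.5 with probenecid.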

rat P2X3 receptor = rat P2X3 receptor (Rattus norvegicus (Rat), UniProt P49654); experiment: Evaluation of rat P2X3 receptor inhibitory activity (Test Example 3); format: cell-based; details: rat P2X3 receptor gene expressed in C6BU-1 cell; read-out: ratP2X3 IC50
Sequence of rat P2X3 receptor (P49654 whole entry): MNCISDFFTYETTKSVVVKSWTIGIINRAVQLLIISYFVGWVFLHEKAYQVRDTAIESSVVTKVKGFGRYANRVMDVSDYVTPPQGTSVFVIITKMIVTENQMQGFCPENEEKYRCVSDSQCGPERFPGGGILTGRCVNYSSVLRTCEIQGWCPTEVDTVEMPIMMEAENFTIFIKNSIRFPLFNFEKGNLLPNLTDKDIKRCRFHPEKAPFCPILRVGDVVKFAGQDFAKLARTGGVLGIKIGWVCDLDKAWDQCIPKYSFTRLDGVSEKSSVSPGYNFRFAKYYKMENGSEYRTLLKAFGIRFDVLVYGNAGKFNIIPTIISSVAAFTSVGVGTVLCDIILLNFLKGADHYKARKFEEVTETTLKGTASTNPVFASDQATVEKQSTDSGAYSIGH
Experimental: Rat P2X3 receptor gene (GenBank accession number NM_031075) was expressed in C6BU-1 cell. The C6BU-1 cells were seeded in a 96-well microtiter plate at a concentration of 2500 cells/well and cultured in the medium (7.0% fetal bovine serum, 7.0% horse serum, and 1% antibiotic and antifungal in DMEM) for one day at 37° C. under 5% carbon dioxide atmosphere. The plasmid was transfected into the cells using transfection reagent FuGENE6 (Promega). The transfected cells were cultured in the medium for one day at 37° C. under 5% carbon dioxide atmosphere. […] Measurement of fluorescence intensity by FDSS 3000 was started, and 40 μL of DMSO solutions containing different concentrations of the test compound as prepared by dilution with dilution buffer (20 mM HEPES, 137 mM NaCl, 5.27 mM KCl, 0.9 mM MgCl2, 1.26 mM CaCl2, 5.6 mM D-glucose, 2.5 mM probenecid, 0.1% Pluronic F-127, pH7.5) were dispensed to each well through the built-in automatic dispenser. Five minutes after, 50 nM ATP solution (50 μL) prepared by dilution with the dilution buffer was dispensed through the built-in automatic dispenser, and the measurement of fluorescence intensity was continued for 4 min. For each well, the specific maximum fluorescence intensity was calculated as the ratio of the maximum fluorescence intensity after addition of the ATP solution to the fluorescence intensity at the starting of the measurement. […]

[1] = Metabolism stability test, pooled human hepatic microsomes (Test Example 11); format: in vitro ADME; details: human liver microsomes, 30 minutes, compound concentration 0.5 μmol/L
Experimental: Using commercially available pooled human hepatic microsomes, a test compound is reacted for a constant time, a remaining rate is calculated by comparing a reacted sample and an unreacted sample, thereby, a degree of metabolism in liver is assessed.
A reaction was performed (oxidative reaction) at 37° C. for 0 minute or 30 minutes in the presence of 1 mmol/L NADPH in 0.2 mL of a buffer (50 mmol/L tris-HCl pH 7.4, 150 mmol/L potassium chloride, 10 mmol/L magnesium chloride) containing 0.5 mg protein/mL of human liver microsomes. After the reaction, 50 μL of the reaction solution was added to 100 μL of a methanol/acetonitrile=1/1 (v/v), mixed and centrifuged at 3000 rpm for 15 minutes. The test compound in the supernatant was quantified by LC/MS/MS, and a remaining amount of the test compound after the reaction was calculated, letting a compound amount at 0 minute reaction time to be 100%.
The remaining rate at the compound concentration 0.5 μmol/L are shown below.

[2] = molecular target: human ether-a-go-go related gene (hERG) channel (Homo sapiens (Human), UniProt Q12809); experiment: hERG test, whole cell patch clamp in CHO cells (Test Example 13); format: cell-based; details: CHO cells expressing hERG channel, tail peak current, 10 minutes
Sequence of human ether-a-go-go related gene (hERG) channel (Q12809 whole entry): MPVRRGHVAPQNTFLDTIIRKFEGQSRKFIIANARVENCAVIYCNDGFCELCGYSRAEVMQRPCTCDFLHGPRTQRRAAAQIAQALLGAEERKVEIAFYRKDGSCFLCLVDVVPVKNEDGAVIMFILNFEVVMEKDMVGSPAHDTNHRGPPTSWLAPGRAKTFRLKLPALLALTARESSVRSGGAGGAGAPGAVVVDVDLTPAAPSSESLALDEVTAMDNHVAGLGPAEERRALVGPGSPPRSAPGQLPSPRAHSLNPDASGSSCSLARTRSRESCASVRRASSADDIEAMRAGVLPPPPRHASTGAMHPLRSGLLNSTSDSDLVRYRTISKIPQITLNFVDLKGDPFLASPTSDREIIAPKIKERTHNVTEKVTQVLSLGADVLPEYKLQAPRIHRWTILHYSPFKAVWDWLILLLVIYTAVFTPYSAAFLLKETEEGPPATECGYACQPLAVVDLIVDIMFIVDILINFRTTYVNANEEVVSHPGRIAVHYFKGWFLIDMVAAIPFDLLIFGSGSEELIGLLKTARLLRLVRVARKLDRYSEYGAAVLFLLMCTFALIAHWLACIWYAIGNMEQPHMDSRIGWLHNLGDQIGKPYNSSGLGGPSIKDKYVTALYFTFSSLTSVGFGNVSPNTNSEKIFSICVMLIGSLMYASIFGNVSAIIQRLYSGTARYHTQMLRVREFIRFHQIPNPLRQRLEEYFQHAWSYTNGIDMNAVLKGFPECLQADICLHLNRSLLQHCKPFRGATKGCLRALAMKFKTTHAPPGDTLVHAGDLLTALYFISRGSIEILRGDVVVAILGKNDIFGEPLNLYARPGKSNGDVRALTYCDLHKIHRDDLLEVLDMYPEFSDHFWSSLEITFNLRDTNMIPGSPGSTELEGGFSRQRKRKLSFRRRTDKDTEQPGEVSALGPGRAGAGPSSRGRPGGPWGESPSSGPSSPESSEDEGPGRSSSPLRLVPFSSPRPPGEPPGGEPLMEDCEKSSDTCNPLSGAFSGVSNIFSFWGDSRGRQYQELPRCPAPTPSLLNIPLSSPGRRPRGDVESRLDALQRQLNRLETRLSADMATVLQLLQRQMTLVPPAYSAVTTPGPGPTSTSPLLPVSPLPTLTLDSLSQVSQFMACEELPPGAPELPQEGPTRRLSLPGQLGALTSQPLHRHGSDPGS
Source text: For the purpose of assessing risk of an electrocardiogram QT interval prolongation of the compound of the present invention, effects of the compound of the present invention on delayed rectifier K+ current (IKr), which plays an important role in the ventricular repolarization process, was studied using CHO cells expressing human ether-a-go-go related gene (hERG) channel.
After a cell was retained at a membrane potential of −80 mV by whole cell patch clamp method using an automated patch clamp system (QPatch; Sophion Bioscience A/S) and gave a leak potential of −50 mV, IKr induced by depolarization pulse stimulation at +20 mV for 2 seconds and, further, repolarization pulse stimulation at −50 mV for 2 seconds, was recorded. […] From the recording IKr, an absolute value of the tail peak current was measured based on the current value at the resting membrane potential using analysis software (Falster Patch; Sophion Bioscience A/S). Further, the % inhibition relative to the tail peak current before application of the compound of the present invention was calculated, and compared with the vehicle-applied group (0.1% dimethyl sulfoxide solution) to assess influence of the compound of the present invention on IKr.

Sequence of human P2X3 receptor (P56373 whole entry): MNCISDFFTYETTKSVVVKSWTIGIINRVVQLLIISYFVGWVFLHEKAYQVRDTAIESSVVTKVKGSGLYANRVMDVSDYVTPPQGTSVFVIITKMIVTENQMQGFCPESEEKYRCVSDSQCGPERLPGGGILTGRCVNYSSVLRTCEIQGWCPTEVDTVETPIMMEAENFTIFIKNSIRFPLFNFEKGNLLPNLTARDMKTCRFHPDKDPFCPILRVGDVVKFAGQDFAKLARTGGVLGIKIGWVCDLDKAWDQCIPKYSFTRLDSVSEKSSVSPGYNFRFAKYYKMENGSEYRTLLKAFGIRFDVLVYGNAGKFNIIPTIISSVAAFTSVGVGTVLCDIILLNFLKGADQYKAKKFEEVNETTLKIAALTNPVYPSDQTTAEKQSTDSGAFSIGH

SMILES | IC50 (human P2X3 receptor) | IC50 (rat P2X3 receptor) | Metabolism Stability (remaining rate) [1] | hERG Inhibition [2]
C[C@@H](C(=O)O)[C@H](C)n1c(=O)[nH]/c(=N\c2ccc(Oc3ccc(F)cn3)c(F)c2)n(Cc2ccc(Cl)cc2)c1=O [Compound I-002] | 5 nM | 6 nM | 99% | 7.3%
CC(C)(Cn1c(=O)[nH]/c(=N\c2ccc(Oc3ccc(Cl)cn3)cc2)n(Cc2ccc(Cl)cc2)c1=O)C(=O)O [Compound I-006] | 5 nM |  |  | 5.3%
